We go through 32 compounds from US10428044B2, “3-amino-1,5,6,7-tetrahydro-4H-indol-4-ones” (Bayer Pharma Aktiengesellschaft, priority 2014, dated 2019).

In the experiment the target is (recombinant) catalytic domain of human Bub1 (amino acids 704-1085) (Homo sapiens (Human), UniProt O43683). The experiment in a line: Bub1 kinase assay (TR-FRET). The class given is biochemical. The following applies: ATP 10 μM final, peptide substrate 1 μM final, 60 min at 22° C., read-out: Biological Assay: Bub1 kinase assay median IC50. In short, it runs like this:
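Compounds were serially diluted 1:3.4 from 2 mM DMSO stocks and incubated with the enzyme reaction for 60 min at 22° C. The reaction was stopped with EDTA, and biotinylated peptide phosphorylation was read by TR-FRET using Eu anti-mouse IgG, anti-phosphoserine antibody and streptavidin-XL665. IC50 was fitted by 4-parameter logistic to inhibition normalized to no-inhibitor and no-enzyme controls.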
On the technique in general: TR-FRET usually uses a lanthanide donor and a delayed reading to cut background.

(recombinant) catalytic domain of human Bub1 (amino acids 704-1085), sequence (O43683 704-1085): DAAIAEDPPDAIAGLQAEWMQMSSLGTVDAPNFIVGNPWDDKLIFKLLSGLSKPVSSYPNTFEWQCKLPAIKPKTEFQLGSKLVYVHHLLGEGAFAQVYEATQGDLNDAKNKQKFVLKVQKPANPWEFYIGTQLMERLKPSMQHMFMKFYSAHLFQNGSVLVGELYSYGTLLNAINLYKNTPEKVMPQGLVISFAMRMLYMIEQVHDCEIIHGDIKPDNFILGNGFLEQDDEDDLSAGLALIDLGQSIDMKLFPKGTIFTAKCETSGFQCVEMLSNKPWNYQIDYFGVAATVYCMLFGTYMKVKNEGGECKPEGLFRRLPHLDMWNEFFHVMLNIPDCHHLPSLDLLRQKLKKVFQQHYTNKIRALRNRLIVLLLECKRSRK

As usually defined, the IC50 is the point on the concentration scale where inhibition reaches its midpoint. Consider `O=C(Nc1cc(-c2[nH]c3c(c2Nc2ccccc2)C(=O)CCC3)ccn1)c1cnn[nH]1` [Example 281, N-{4-[4-oxo-3-(phenylamino)-4,5,6,7-tetrahydro-1H-indol-2-yl]pyridin-2-yl}-1H-1,2,3-triazole-5-carboxamide], for which the IC50 stood at 11.2 nM.
Consider `O=C(Nc1cc(-c2[nH]c3c(c2Nc2ccccc2)C(=O)CCC3)ccn1)c1cnco1` [Example 282, N-{4-[4-oxo-3-(phenylamino)-4,5,6,7-tetrahydro-1H-indol-2-yl]pyridin-2-yl}-1,3-oxazole-5-carboxamide], for which the IC50 was 9.72 nM.
On to `O=C(Nc1cc(-c2[nH]c3c(c2Nc2ccccc2)C(=O)CCC3)ccn1)c1nnn[nH]1` [Example 283, N-{4-[4-oxo-3-(phenylamino)-4,5,6,7-tetrahydro-1H-indol-2-yl]pyridin-2-yl}-1H-tetrazole-5-carboxamide], for which the IC50 came out at 18.9 nM.
`O=C(Cc1ccc[nH]1)Nc1cc(-c2[nH]c3c(c2Nc2ccccc2)C(=O)CCC3)ccn1` [Example 284, N-{4-[4-oxo-3-(phenylamino)-4,5,6,7-tetrahydro-1H-indol-2-yl]pyridin-2-yl}-2-(1H-pyrrol-2-yl)acetamide]: the IC50 was 13.7 nM.
For `O=C(Cc1nccs1)Nc1cc(-c2[nH]c3c(c2Nc2ccccc2)C(=O)CCC3)ccn1` [Example 285, N-{4-[4-oxo-3-(phenylamino)-4,5,6,7-tetrahydro-1H-indol-2-yl]pyridin-2-yl}-2-(1,3-thiazol-2-yl)acetamide], the IC50 amounted to 30.8 nM.
On to `O=C(Cc1cc[nH]c1)Nc1cc(-c2[nH]c3c(c2Nc2ccccc2)C(=O)CCC3)ccn1` [Example 286, N-{4-[4-oxo-3-(phenylamino)-4,5,6,7-tetrahydro-1H-indol-2-yl]pyridin-2-yl}-2-(1H-pyrrol-3-yl)acetamide], for which the IC50 is 21.6 nM.
Take `O=C(Cc1cscn1)Nc1cc(-c2[nH]c3c(c2Nc2ccccc2)C(=O)CCC3)ccn1` [Example 287, N-{4-[4-oxo-3-(phenylamino)-4,5,6,7-tetrahydro-1H-indol-2-yl]pyridin-2-yl}-2-(1,3-thiazol-4-yl)acetamide]: the IC50 was determined as 48.4 nM.
Consider `O=C(Cc1ccco1)Nc1cc(-c2[nH]c3c(c2Nc2ccccc2)C(=O)CCC3)ccn1` [Example 288, 2-(furan-2-yl)-N-{4-[4-oxo-3-(phenylamino)-4,5,6,7-tetrahydro-1H-indol-2-yl]pyridin-2-yl}acetamide], for which the IC50 turned out to be 16.7 nM.
Regarding `Cc1cc(CC(=O)Nc2cc(-c3[nH]c4c(c3Nc3ccccc3)C(=O)CCC4)ccn2)on1` [Example 289, 2-(3-methyl-1,2-oxazol-5-yl)-N-{4-[4-oxo-3-(phenylamino)-4,5,6,7-tetrahydro-1H-indol-2-yl]pyridin-2-yl}acetamide], the IC50 was determined as 15.9 nM.
Take `O=C(Cc1cccs1)Nc1cc(-c2[nH]c3c(c2Nc2ccccc2)C(=O)CCC3)ccn1` [Example 290, N-{4-[4-oxo-3-(phenylamino)-4,5,6,7-tetrahydro-1H-indol-2-yl]pyridin-2-yl}-2-(thiophen-2-yl)acetamide]: the IC50 worked out at 13.9 nM.
The same measure for `O=C(Cc1ccsc1)Nc1cc(-c2[nH]c3c(c2Nc2ccccc2)C(=O)CCC3)ccn1` [Example 291, N-{4-[4-oxo-3-(phenylamino)-4,5,6,7-tetrahydro-1H-indol-2-yl]pyridin-2-yl}-2-(thiophen-3-yl)acetamide]: 28.7 nM; for `Cn1nccc1CC(=O)Nc1cc(-c2[nH]c3c(c2Nc2ccccc2)C(=O)CCC3)ccn1` [Example 292, 2-(1-methyl-1H-pyrazol-5-yl)-N-{4-[4-oxo-3-(phenylamino)-4,5,6,7-tetrahydro-1H-indol-2-yl]pyridin-2-yl}acetamide]: 340 nM; for `CC(=O)Nc1cc(-c2[nH]c3c(c2Nc2ccccc2)C(=O)CC2(CC2)C3)ccn1` [Example 293, N-{4-[4′-oxo-3′-(phenylamino)-1′,4′,5′,7′-tetrahydrospiro[cyclopropane-1,6′-indol]-2′-yl]pyridin-2-yl}acetamide]: 11.2 nM.
As for `O=C1CC2(CC2)Cc2[nH]c(-c3ccnc(NC(=O)C4CC4)c3)c(Nc3ccccc3)c21` [Example 294, N-{4-[4′-oxo-3′-(phenylamino)-1′,4′,5′,7′-tetrahydrospiro[cyclopropane-1,6′-indol]-2′-yl]pyridin-2-yl}cyclopropanecarboxamide], the IC50 stood at 9.17 nM.
To `CC(C)(C)OC(=O)N1CC(C(=O)Nc2cc(-c3[nH]c4c(c3Nc3ccccc3)C(=O)CCC4)ccn2)C1` [Example 295, tert-butyl 3-({4-[4-oxo-3-(phenylamino)-4,5,6,7-tetrahydro-1H-indol-2-yl]pyridin-2-yl}carbamoyl)azetidine-1-carboxylate] belongs 38 nM.
Turning to `O=C1CCCc2[nH]c(-c3ccnc(NC(=O)C4CNC4)c3)c(Nc3ccccc3)c21` [Example 296, N-{4-[4-oxo-3-(phenylamino)-4,5,6,7-tetrahydro-1H-indol-2-yl]pyridin-2-yl}azetidine-3-carboxamide], the IC50 came to 3450 nM.
`CN(CC(=O)Nc1cc(-c2[nH]c3c(c2Nc2ccccc2)C(=O)CCC3)ccn1)C(=O)OC(C)(C)C` [Example 297, tert-butyl methyl[2-oxo-2-({4-[4-oxo-3-(phenylamino)-4,5,6,7-tetrahydro-1H-indol-2-yl]pyridin-2-yl}amino)ethyl]carbamate]: the IC50 came out at 271 nM.
Take `CN(CCC(=O)Nc1cc(-c2[nH]c3c(c2Nc2ccccc2)C(=O)CCC3)ccn1)C(=O)OC(C)(C)C` [Example 299, tert-butyl methyl[3-oxo-3-({4-[4-oxo-3-(phenylamino)-4,5,6,7-tetrahydro-1H-indol-2-yl]pyridin-2-yl}amino)propyl]carbamate]: the IC50 was 74.3 nM.
Take `CNCCC(=O)Nc1cc(-c2[nH]c3c(c2Nc2ccccc2)C(=O)CCC3)ccn1` [Example 300, N^2-methyl-N-{4-[4-oxo-3-(phenylamino)-4,5,6,7-tetrahydro-1H-indol-2-yl]pyridin-2-yl}-beta-alaninamide]: the IC50 stood at 475 nM.
As for `C[C@H](C(=O)Nc1cc(-c2[nH]c3c(c2Nc2ccccc2)C(=O)CCC3)ccn1)N(C)C(=O)OC(C)(C)C` [Example 301, tert-butyl methyl[(2R)-1-oxo-1-({4-[4-oxo-3-(phenylamino)-4,5,6,7-tetrahydro-1H-indol-2-yl]pyridin-2-yl}amino)propan-2-yl]carbamate], the IC50 was 738 nM.
To `CN[C@H](C)C(=O)Nc1cc(-c2[nH]c3c(c2Nc2ccccc2)C(=O)CCC3)ccn1` [Example 302, N^2-methyl-N-{4-[4-oxo-3-(phenylamino)-4,5,6,7-tetrahydro-1H-indol-2-yl]pyridin-2-yl}-D-alaninamide] belongs 480 nM; to `C[C@@H](C(=O)Nc1cc(-c2[nH]c3c(c2Nc2ccccc2)C(=O)CCC3)ccn1)N(C)C(=O)OC(C)(C)C` [Example 303, tert-butyl methyl[(2S)-1-oxo-1-({4-[4-oxo-3-(phenylamino)-4,5,6,7-tetrahydro-1H-indol-2-yl]pyridin-2-yl}amino)propan-2-yl]carbamate], 1410 nM.
As for `CN[C@@H](C)C(=O)Nc1cc(-c2[nH]c3c(c2Nc2ccccc2)C(=O)CCC3)ccn1` [Example 304, N^2-methyl-N-{4-[4-oxo-3-(phenylamino)-4,5,6,7-tetrahydro-1H-indol-2-yl]pyridin-2-yl}-L-alaninamide], the IC50 was determined as 174 nM.
Turning to `CNC(C)(C)C(=O)Nc1cc(-c2[nH]c3c(c2Nc2ccccc2)C(=O)CCC3)ccn1` [Example 306, N^2,2-dimethyl-N-{4-[4-oxo-3-(phenylamino)-4,5,6,7-tetrahydro-1H-indol-2-yl]pyridin-2-yl}alaninamide], the IC50 stood at 3990 nM.
To `CN(C)CC(=O)Nc1cc(-c2[nH]c3c(c2Nc2ccccc2)C(=O)CCC3)ccn1` [Example 307, N^2,N^2;-dimethyl-N-{4-[4-oxo-3-(phenylamino)-4,5,6,7-tetrahydro-1H-indol-2-yl]pyridin-2-yl}glycinamide] belongs 208 nM; to `O=C(CN1CCCC1)Nc1cc(-c2[nH]c3c(c2Nc2ccccc2)C(=O)CCC3)ccn1` [Example 308, N-{4-[4-oxo-3-(phenylamino)-4,5,6,7-tetrahydro-1H-indol-2-yl]pyridin-2-yl}-2-(pyrrolidin-1-yl)acetamide], 234 nM.
For `CN1CCCC1C(=O)Nc1cc(-c2[nH]c3c(c2Nc2ccccc2)C(=O)CCC3)ccn1` (centres unmarked) [Example 309, 1-methyl-N-{4-[4-oxo-3-(phenylamino)-4,5,6,7-tetrahydro-1H-indol-2-yl]pyridin-2-yl}-prolinamide], the IC50 was 238 nM.
Consider `CN1C(=O)CCC1C(=O)Nc1cc(-c2[nH]c3c(c2Nc2ccccc2)C(=O)CCC3)ccn1` (centres unmarked) [Example 310, 1-methyl-5-oxo-N-{4-[4-oxo-3-(phenylamino)-4,5,6,7-tetrahydro-1H-indol-2-yl]pyridin-2-yl}-prolinamide], for which the IC50 was determined as 127 nM.
To `O=C1CCC(C(=O)Nc2cc(-c3[nH]c4c(c3Nc3ccccc3)C(=O)CCC4)ccn2)N1` (centres unmarked) [Example 311, 5-oxo-N-{4-[4-oxo-3-(phenylamino)-4,5,6,7-tetrahydro-1H-indol-2-yl]pyridin-2-yl}-prolinamide] belongs 40.6 nM; to `COC(=O)Nc1cc(-c2[nH]c3c(c2Nc2cccc(F)c2)C(=O)CCC3)ccn1` [Example 312, methyl (4-{3-[(3-fluorophenyl)amino]-4-oxo-4,5,6,7-tetrahydro-1H-indol-2-yl}pyridin-2-yl)carbamate], 19.9 nM; to `O=C1CCCc2[nH]c(-c3ccnc(NC(=O)C4CC4)c3)c(Nc3ccc(F)cc3)c21` [Example 314, N-(4-{3-[(4-fluorophenyl)amino]-4-oxo-4,5,6,7-tetrahydro-1H-indol-2-yl}pyridin-2-yl)cyclopropanecarboxamide], 47.5 nM.
On to `CC(=O)Nc1cc(-c2[nH]c3c(c2Nc2ccc(F)c(F)c2)C(=O)CCC3)ccn1` [Example 315, N-(4-{3-[(3,4-difluorophenyl)amino]-4-oxo-4,5,6,7-tetrahydro-1H-indol-2-yl}pyridin-2-yl)acetamide], for which the IC50 came to 101 nM.
